Data from publication PMC8846325, “A Photoactivable Natural Product with Broad Antiviral Activity against Enveloped Viruses, Including Highly Pathogenic Coronaviruses” (Antimicrobial Agents and Chemotherapy, 2022).

How the values were obtained:
Huh-7 cells = test: MTS cell toxicity assay, Huh-7 cells; assay type: cell-based; conditions: Huh-7 cells; for CC50: 24 h, light exposure
Experimental: (§1) A total of 6 × 10^4 Huh-7, Vero-E6, and Vero-81 cells were seeded in 96-well plates and incubated for 16 h at 37°C in a 5% CO2 incubator. The cells were then treated with increasing concentrations of the compound of interest. One hour after inoculation, cells were taken out of the incubator to be exposed to the white light of a biosafety cabinet (BSC) for 10 min, after which cells were further incubated in the dark at 37°C and 5% CO2 for 23 h. The BSC’s light source lamp consists of one fluorescent tube of 36 W, 3,350 lumen, white light. An MTS [3-(4,5-dimethylthiazol-2-yl)-5-(3-carboxymethoxyphenyl)-2-(4-sulfophenyl)-2H-tetrazolium]-based viability assay (Cell Titer 96 aqueous nonradioactive cell proliferation assay; Promega) was performed as recommended by the manufacturer. The absorbance of formazan at 490 nm was detected using a plate reader (ELX 808 Bio-Tek Instruments Inc.). Each measure was performed in triplicate, and each experiment was repeated at least 3 times.
(§2) 6×104 Huh-7, Vero-E6 and Vero-81 cells were seeded in 96-well plates and incubated for 16 h at 37 °C 5% CO2 incubator. The cells were then treated with increasing concentrations of the compound of interest. One hour after inoculation, cells were either left in the incubator (dark condition) or taken out to be exposed to the white light of the biosafety cabinet (BSC) for 10 min (light condition), after which cells were further incubated in the dark at 37 °C 5% CO2 for 23 h. BSC’s light source lamp consists of one fluorescent tube of 36W, 3350 lumen white light. An MTS [3-(4,5-dimethylthiazol-2-yl)-5-(3-carboxymethoxyphenyl)-2-(4-sulfophenyl)- 2H-tetrazolium]-based viability assay (Cell Titer 96 Aqueous non-radioactive cell proliferation assay, Promega) was performed as recommended by the manufacturer. The absorbance of formazan at 490 nm was detected using a plate reader (ELX 808 Bio-Tek […]
(§3) Instruments Inc). […]

HCoV-229E [1] = test: HCoV-229E-Luc infection inhibition luciferase assay; assay type: cell-based; conditions: for light dependence of antiviral effect: HCoV-229E, light versus dark; for antiviral activity against HCoV-229E-Luc, screening of related compounds: Huh-7 cells, 1, 5, 10 µM, light exposure
[2] = MTS cell toxicity assay, Huh-7 cells; assay type: cell-based; conditions: human, Huh-7 cells, 24 h
Experimental: as §1, §2, §3

HCoV-229E [3] = test: Quencher assay (singlet oxygen quenchers); assay type: cell-based; conditions: quencher 10 mM, Pba 0.5 or 1 μM
HCoV-229E [4] = test: Attachment assay (bound virions by qRT-PCR); assay type: cell-based; conditions: Huh-7-TMPRSS2 cells, 4°C 1 h, 4.1 and 8.2 μM
SARS-CoV-2 spike protein = SARS-CoV-2 spike protein (Severe acute respiratory syndrome coronavirus 2, UniProt P0DTC2); assay type: cell-based
HCoV-229E [5] = test: Time-of-addition assay, HCoV-229E-Luc; assay type: cell-based
[6] = system: Mucilair primary human bronchial epithelial cells; test: Mucilair toxicity assays (LDH secretion, transepithelial electrical resistance); conditions: 0.25 and 2.5 μM, up to 72 h
HCoV-229E [7] = test: HCoV-229E infectious titers (TCID50); assay type: cell-based
Sindbis virus (SINV) = assay type: cell-based
hepatitis C virus = assay type: cell-based, HCV
SARS-CoV-2 [8] = assay type: cell-based
[9] = MTS cell toxicity assay, Vero-E6 cells; assay type: cell-based; conditions: African green monkey, 24 h, 10 min light exposure after 1 h, read-out: 50% cytotoxic concentration (CC50)
Experimental: as §1
(§4) 6×104 Huh-7, Vero-E6 and Vero-81 cells were seeded in 96-well plates and incubated for 16 h at 37 °C 5% CO2 incubator. The cells were then treated with increasing concentrations of the compound of interest. […] The absorbance of formazan at 490 nm was detected using a plate reader (ELX 808 Bio-Tek […]

Vero-E6 cells = test: MTS cell toxicity assay, Vero-E6 cells; assay type: cell-based; conditions: 24 h in incubator without light exposure
Experimental: as §1, §4

MERS-CoV [10] = assay type: cell-based; conditions: Mucilair cells, 2.5 μM, 72 h postinoculation
HCoV-229E [11] = test: White light exposure kinetics; assay type: cell-based
[12] = MTS cell toxicity assay, Vero-81 cells; assay type: cell-based; conditions: African green monkey, 24 h, 10 min light exposure after 1 h, read-out: 50% cytotoxic concentration (CC50)
Experimental: as §1, §4

Vero-81 cells = test: MTS cell toxicity assay, Vero-81 cells; assay type: cell-based; conditions: 24 h in incubator without light exposure
Experimental: as §1, §4

SARS-CoV-2 [13] = assay type: cell-based; remark: listed apart in the source
MERS-CoV [14] = test: microbe, parasite or virus in culture; assay type: cell-based
SARS-CoV-2 [15] = test: microbe, parasite or virus in culture; assay type: cell-based
coxsackievirus (CVB4) = assay type: cell-based, Coxsackievirus B4
yellow fever virus (YFV) = assay type: cell-based; conditions: 1 and 2.5 μM, light 30 min prior to inoculation
[16] = system: pseudotyped viral particles with envelope proteins of VSV, HCV, SARS-CoV-2, and MERS-CoV; assay type: cell-based
HCoV-229E [17] = test: Trypsin-induced virus-cell fusion assay; assay type: cell-based; conditions: Huh-7 cells, NH4Cl, 0.5 and 1 μM
[18] = against HCoV-229E, Huh-7 cells, normal white light exposure, read-out: IC50
[19] = light exposure, read-out: CC50 (μM) 24 h
[20] = Huh-7-TMPRSS2 cells, Pba 2 μM, BSC light

N-methyl protoporphyrin IX
CC50 (Huh-7 cells): > 80 µM | light dependence of antiviral effect (HCoV-229E [1]): light-dependent antiviral effect | antiviral activity under dark conditions (HCoV-229E [1]; Huh-7 cells, dark): showed antiviral activity under dark conditions | IC50 (HCoV-229E [1]; [18]): 1210 nM

c1ccc2c(c1)-c1nc-2nc2[nH]c(nc3nc(nc4[nH]c(n1)c1ccccc41)-c1ccccc1-3)c1ccccc21 [phthalocyanine]
antiviral activity against HCoV-229E-Luc, screening of related compounds (HCoV-229E [1]): not active at the tested concentrations

hemin chloride
antiviral activity against HCoV-229E-Luc, screening of related compounds (HCoV-229E [1]): moderate antiviral activity

C=Cc1c(C)c2cc3nc(c(CC(=O)O)c4[nH]c(cc5nc(cc1[nH]2)C(C)=C5CC)c(C)c4C(=O)O)[C@@H](CCC(=O)O)[C@@H]3C [Chlorin e6, chlorin e6]
CC50 at 24 h [2, 19]: 21.4 µM | light dependence of antiviral effect (HCoV-229E [1]): light-dependent antiviral effect | IC50 (HCoV-229E [1]; Human coronavirus 229E, Huh-7): 720 nM

Cc1c(C)c2c(c(C)c1O)CCC(C)(C(=O)O)O2 (stereo not drawn) [Trolox]
effect of quencher on antiviral action of Pba (HCoV-229E [3]): able to reduce the action of Pba

C=Cc1c(C)c2cc3nc(c4c5[nH]c(cc6nc(cc1[nH]2)C(C)=C6CC)c(C)c5C(=O)[C@@H]4C(=O)OC)[C@@H](CCC(=O)O)[C@@H]3C [Pba, pheophorbide a]
virus attachment (bound HCoV-229E RNA levels) (HCoV-229E [4]): only a slight and nonsignificant decrease in RNA levels | spike-induced cell-cell fusion (syncytium formation) (SARS-CoV-2 spike protein): cannot prevent cell-cell fusion | infectivity, compound added more than 2 h after inoculation (HCoV-229E [5]): normal levels of infectivity | inhibition of infection, compound added before inoculation (pretreatment of the cells) (HCoV-229E [5]; [20]): no inhibition of infection | inhibition of infection, compound present during inoculation (HCoV-229E [5]; [20]): strong inhibition of infection | toxicity (LDH secretion and transepithelial electrical resistance) [6]: No toxicity was observed | selectivity index (SI), HCoV-229E (HCoV-229E [7]; CC50 Huh-7 / IC50 infectious titers): 44 | IC50 (HCoV-229E [7]; Human coronavirus 229E, Huh-7, 10 min, read-out: IC50, HCoV-229E infectious titers): 100 nM | antiviral activity on SINV (enveloped) (Sindbis virus (SINV)): clear antiviral effect | antiviral activity on HCV (enveloped) (hepatitis C virus): clear antiviral effect | infectivity, compound added more than 2 h after inoculation (SARS-CoV-2 [8]): normal levels of infectivity | inhibition of infection, compound added before inoculation (pretreatment of the cells) (SARS-CoV-2 [8]): no inhibition of infection | inhibition of infection, compound present during inoculation (SARS-CoV-2 [8]): strong inhibition of infection | CC50 at 24 h ([2]; 10 min light exposure after 1 h, read-out: 50% cytotoxic concentration (CC50)): 4.4 ± 1.2 µM | CC50 at 24 h [2, 19]: 6.08 µM | concentrations at which no toxicity was exhibited (Huh-7 cells; 24 h in incubator without light exposure): up to 120 μM | CC50 at 24 h [9]: 5800 ± 1900 nM | concentrations at which no toxicity was exhibited (Vero-E6 cells): up to 120 μM | decrease of viral titers, MERS-CoV (MERS-CoV [10]): more than 1 log10 | viral RNA levels of MERS-CoV (MERS-CoV [10]): significantly decreased | antiviral effect at inactive concentration with long light exposure (HCoV-229E [11]; 0.02 μM, 80 min light exposure): no antiviral effect | inhibitory effect with longer light exposure times (HCoV-229E [11]; 0.02, 0.2, 2 μM, light 5 to 80 min): increased inhibitory effect | CC50 at 24 h [12]: 5500 ± 2000 nM | concentrations at which no toxicity was exhibited (Vero-81 cells): up to 120 μM | activity against HCoV-229E-Luc, extracts and fractions (HCoV-229E [1]; Huh-7 cells, 25 μg/ml, 7 h postinoculation): the most active | antiviral activity in the dark (HCoV-229E [1]; Huh-7 cells, dark, 10 μM): antiviral activity was observed | antiviral activity in presence or absence of TMPRSS2 (HCoV-229E [1]; Huh-7 versus Huh-7-TMPRSS2 cells): No difference in antiviral activity | IC50 (HCoV-229E [1]; Human coronavirus 229E, Huh-7): 540 nM | IC50 (HCoV-229E [1]; Human coronavirus 229E, Huh-7, 7 h, read-out: 50% inhibitory concentration (IC50) against HCoV-229E-Luc): 510 nM | antiviral activity after pretreatment of virus versus no pretreatment (HCoV-229E [1]; virus preincubated 30 min with 2 μM, diluted to 0.2 μM for inoculation, compared with 0.2 μM directly, Huh-7 cells): much stronger | decrease of viral titers, SARS-CoV-2 (SARS-CoV-2 [13]): more than 1 log10 | viral RNA levels of SARS-CoV-2 (SARS-CoV-2 [13]): significantly decreased | selectivity index, MERS-CoV (MERS-CoV [14]): 24 | IC50 (MERS-CoV [14]; Middle East respiratory syndrome-related coronavirus, Huh-7, read-out: IC50, MERS-CoV infectious titers): 180 nM | selectivity index, SARS-CoV-2 (SARS-CoV-2 [15]): 32 | IC50 (SARS-CoV-2 [15]; Severe acute respiratory syndrome coronavirus 2, Vero C1008, read-out: IC50, SARS-CoV-2 infectious titers): 180 nM | antiviral activity on CVB4 (nonenveloped) (coxsackievirus (CVB4)): not active | antiviral activity on YFV (enveloped) (yellow fever virus (YFV)): clear antiviral effect | pseudoparticle infection [16]: inhibited pseudoparticle infection regardless of the nature of the viral envelope protein but only under light conditions | infection under trypsin-mediated fusion conditions (HCoV-229E [17]): strongly inhibited infection levels

HPPH
CC50 (Huh-7 cells): 8.13 µM | light dependence of antiviral effect (HCoV-229E [1]): light-dependent antiviral effect | IC50 (HCoV-229E [1]; [18]): 1140 nM

C=Cc1c(C)c2cc3nc(c4c5[n-]c(cc6nc(cc1[n-]2)C(C=O)=C6CC)c(C)c5C(=O)[C@@H]4C(=O)OC)[C@@H](CCC(=O)OC/C=C(\C)CCC[C@H](C)CCC[C@H](C)CCCC(C)C)[C@@H]3C.[Mg+2] [Chlorophyll b]
antiviral activity against HCoV-229E-Luc, screening of related compounds (HCoV-229E [1]): not active at the tested concentrations
